Measured values reported in PubChem BioAssay (NCI).
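Growth conditions: 96-well plates. Treatment: test compound, 48 hours, 5 concentrations. Analysis: linear interpolation between bracketing concentrations; unreached endpoints set to highest concentration. The concentration for full growth arrest is given as TGI.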

What was measured:
Experiment in all cases: NCI tumour cell line growth inhibition, 48 h
DMS 273 small cell lung = tested on: DMS 273 small cell lung
SN12K1 renal = tested on: SN12K1 renal
P388/ADR leukemia = tested on: P388/ADR leukemia
P388 leukemia = tested on: P388 leukemia
DLD-1 colon = tested on: DLD-1 colon
LXFL 529 NSCLC = tested on: LXFL 529 NSCLC

| SMILES | TGI (DMS 273 small cell lung) | TGI (SN12K1 renal) | TGI (P388/ADR leukemia) | TGI (P388 leukemia) | TGI (DLD-1 colon) | TGI (LXFL 529 NSCLC) |
| --- | --- | --- | --- | --- | --- | --- |
| O=C(O)c1cn2c3c(cc(N4CCN(CCO)CC4)cc3c1=O)SCC2 | > 100000 nM | > 100000 nM | > 100000 nM | > 100000 nM | > 100000 nM |  |
| Cc1c2cnccc2c(C)c2c1c1ccccc1n2CCCCCCNCc1ccccc1 | 2470 nM | 1900 nM |  | 732 nM | 2920 nM |  |
| CNC(=O)N(C)COC |  |  |  |  | > 100000 nM | > 100000 nM |
